Assay results as given in US10774094B2, “Crystal forms and salt forms of 7h-pyrrolo[2,3-d]pyrimidine compounds and preparation method thereof” (Wuxi Fortune Pharmaceutical Co., Ltd, priority 2016, dated 2020).
One block for each molecule: values may come before it.

How the values were obtained:
Recombinant human JAK2 = target: T1, Recombinant human JAK2 (Homo sapiens, UniProt O60674); experiment: In-vitro activity test of JAK2 kinase (LANCE Ultra); assay type: biochemical
T1 construct: purchased Life technology
Protocol: (§1) Recombinant human JAK1, JAK2, and JAK3 […] were purchased from Life technology. LANCE Ultra ULight™-JAK-1 (Tyr1023) peptide and LANCE Eu-W1024 Anti-phosphotyrosine (PT66) both were purchased from PerkinElmer. The plates were read using a multiplex enzyme reader Envision (PerkinElmer).
(§2) The test compounds were subjected to 3-fold concentration gradient dilution to afford 11 final concentrations ranging from 10 uM to 0.17 nM; two wells were formed for each concentration; and the content of DMSO in the detection reaction was 1%.
(§3) 0.02 nM of JAK2 protein kinase, 50 nM of LANCE Ultra ULight™-JAK-1 (Tyr1023) peptide, 12 uM of ATP, 50 mM of HEPES (pH 7.5), 10 mM of MgCl2, 1 mM of EGTA, 2 mM of DTT, and 0.01% of BRIJ-35 were included. The assay plate was a White Proxiplate 384-Plus plate (PerkinElmer). The reaction was performed at room temperature for 60 minutes; and the reaction system was 10 ul.
(§4) 10 ul of the detection reagent was added to a reaction plate, wherein the final concentration of LANCE Eu-W1024 Anti-phosphotyrosine (PT66) was 2 nM, and the final concentration of EDTA was 10 mM. The reagents were incubated for 60 minutes at room temperature; and the plate was read with Envision instrument.
The reading was converted to an inhibition rate by the following formula: (%)=(Min−Ratio)/(Max−Min)*100%. IC50 data were measured by 4-parameter curve fitting (Model 205 in XLFIT5, iDBS). […]

Recombinant human JAK1 = target: T2, Recombinant human JAK1 (Homo sapiens, UniProt P23458); experiment: In-vitro activity test of JAK1 kinase (LANCE Ultra); assay type: biochemical
T2 construct: purchased Life technology
Protocol: as §1, §2
as §3, with “2” for “0.02”, “JAK1” for “JAK2”, “38” for “12”, “90” for “60”
as §4
The reading was converted to an inhibition rate by the following formula: […]. IC50 data were measured by 4-parameter curve fitting (Model 205 in XLFIT5, iDBS). Seen Table 9 for details.

[1] = Solubility tests of crystal form A in different solvents (manual stepwise dilution); assay type: physicochemical; details: for solubility: thermodynamic from solid, atmospheric temperature
Protocol: These solubility tests were carried out by manually stepwise dilution and simultaneous observation of dissolution at atmospheric temperature.

[2] = Stability tests of crystal form A in different solvents (40° C., 2 days, XRPD); assay type: physicochemical; details: for Results (crystal form of the solid by XRPD): 40° C., 2 days; for Appearance (2 days): stirred at 40° C. for 2 days
Protocol: The solids in all samples were collected and dried overnight in a vacuum drying oven (25° C.).

[3] = Technical effect statement on properties of the crystal forms (no method given); assay type: physicochemical
[4] = Solid stability tests of crystal form E under high temperature, high humidity and strong light (XRPD); assay type: physicochemical
Description: The vial in which the samples were placed at high temperature and high humidity was sealed with an aluminum foil, and small holes were formed in the aluminum foil to ensure that the samples were sufficiently contacted with atmospheric air; and the sample placed at strong light radiation was sealed with a threaded cap. The samples placed under different conditions were sampled and tested by XRPD on day 5 and day 10. The test results were compared with the initial test results on day 0.

T2 sequence (P23458 whole entry): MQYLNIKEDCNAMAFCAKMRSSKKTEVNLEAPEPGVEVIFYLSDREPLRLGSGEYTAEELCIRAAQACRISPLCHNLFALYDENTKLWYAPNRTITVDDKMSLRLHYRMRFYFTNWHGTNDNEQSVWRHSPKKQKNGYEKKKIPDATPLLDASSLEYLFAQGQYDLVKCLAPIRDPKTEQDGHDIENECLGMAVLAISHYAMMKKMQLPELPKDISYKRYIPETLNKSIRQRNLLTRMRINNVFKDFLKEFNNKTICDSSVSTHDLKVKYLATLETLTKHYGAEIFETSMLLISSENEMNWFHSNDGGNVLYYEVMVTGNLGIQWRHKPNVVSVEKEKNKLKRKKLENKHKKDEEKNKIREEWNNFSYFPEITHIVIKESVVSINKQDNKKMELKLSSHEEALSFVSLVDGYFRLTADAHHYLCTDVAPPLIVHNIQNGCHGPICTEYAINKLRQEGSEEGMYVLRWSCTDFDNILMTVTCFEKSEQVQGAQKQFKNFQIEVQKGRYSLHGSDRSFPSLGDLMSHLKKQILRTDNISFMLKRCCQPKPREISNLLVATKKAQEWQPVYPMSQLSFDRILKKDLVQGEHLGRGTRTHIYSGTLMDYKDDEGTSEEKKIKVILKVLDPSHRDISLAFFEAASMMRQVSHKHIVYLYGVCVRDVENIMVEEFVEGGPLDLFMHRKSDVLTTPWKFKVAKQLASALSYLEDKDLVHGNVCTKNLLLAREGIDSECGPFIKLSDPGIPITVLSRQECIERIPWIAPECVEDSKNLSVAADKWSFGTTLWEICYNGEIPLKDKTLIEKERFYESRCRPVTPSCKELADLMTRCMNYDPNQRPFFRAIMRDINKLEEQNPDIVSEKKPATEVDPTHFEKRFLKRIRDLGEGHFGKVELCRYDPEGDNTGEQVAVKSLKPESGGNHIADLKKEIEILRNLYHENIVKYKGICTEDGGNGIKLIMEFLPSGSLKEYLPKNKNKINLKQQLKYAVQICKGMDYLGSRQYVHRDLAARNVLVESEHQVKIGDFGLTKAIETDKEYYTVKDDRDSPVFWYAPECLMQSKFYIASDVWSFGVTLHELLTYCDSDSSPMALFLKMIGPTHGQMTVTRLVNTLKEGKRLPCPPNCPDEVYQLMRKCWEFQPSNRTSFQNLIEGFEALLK
T1 sequence (O60674 whole entry): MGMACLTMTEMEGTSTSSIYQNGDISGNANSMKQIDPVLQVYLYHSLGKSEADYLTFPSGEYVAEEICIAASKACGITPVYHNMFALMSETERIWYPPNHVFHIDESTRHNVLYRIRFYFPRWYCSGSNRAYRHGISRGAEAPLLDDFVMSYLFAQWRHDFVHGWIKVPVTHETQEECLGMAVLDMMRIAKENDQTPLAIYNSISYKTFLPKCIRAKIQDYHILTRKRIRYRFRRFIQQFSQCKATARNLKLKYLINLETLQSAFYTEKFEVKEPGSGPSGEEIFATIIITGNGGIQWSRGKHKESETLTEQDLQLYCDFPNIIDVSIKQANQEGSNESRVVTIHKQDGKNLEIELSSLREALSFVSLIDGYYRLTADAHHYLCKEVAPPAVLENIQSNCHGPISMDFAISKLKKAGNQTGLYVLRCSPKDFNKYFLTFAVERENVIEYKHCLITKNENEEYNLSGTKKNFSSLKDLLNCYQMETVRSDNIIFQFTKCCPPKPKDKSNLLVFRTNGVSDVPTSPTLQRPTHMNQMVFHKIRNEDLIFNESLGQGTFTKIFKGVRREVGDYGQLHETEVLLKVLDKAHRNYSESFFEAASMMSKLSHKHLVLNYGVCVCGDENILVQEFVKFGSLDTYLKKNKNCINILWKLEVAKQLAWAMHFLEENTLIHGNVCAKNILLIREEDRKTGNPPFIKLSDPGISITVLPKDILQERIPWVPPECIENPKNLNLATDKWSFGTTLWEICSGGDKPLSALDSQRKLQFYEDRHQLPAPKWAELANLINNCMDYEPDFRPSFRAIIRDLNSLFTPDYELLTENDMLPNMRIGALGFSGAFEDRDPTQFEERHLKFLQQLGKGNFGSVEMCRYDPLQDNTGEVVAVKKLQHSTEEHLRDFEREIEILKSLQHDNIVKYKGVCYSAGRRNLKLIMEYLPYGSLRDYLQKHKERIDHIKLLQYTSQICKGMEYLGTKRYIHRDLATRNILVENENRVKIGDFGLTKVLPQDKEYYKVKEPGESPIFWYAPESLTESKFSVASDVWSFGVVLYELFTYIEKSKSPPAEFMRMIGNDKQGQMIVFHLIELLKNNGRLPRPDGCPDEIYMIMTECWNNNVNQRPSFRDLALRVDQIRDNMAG

inhibitory activity against JAK2 (in words) (Recombinant human JAK2): relatively weak inhibitory activity | IC50 (Recombinant human JAK2; 12 uM ATP, 60 minutes, room temperature): 10 to 100 nM | inhibitory activity against JAK1 (in words) (Recombinant human JAK1): strong inhibitory activity | selective inhibition (JAK1 versus JAK2, in words) (Recombinant human JAK1): better selective inhibition for JAK | IC50 (Recombinant human JAK1; 38 uM ATP, 90 minutes, room temperature): ≤ 10 nM
SMILES: CN(c1ncnc2[nH]ccc12)[C@@H]1CCn2cc(C#N)nc2C1 (single isomer, unassigned) [Compound 1, 7-[methyl-[7-hydropyrrolo[2,3-d]pyrimidin-4-yl]amino]-5,6,7,8-tetrahydroimidazo[1,2-a]pyridin-2-nitrile]

Solubility conclusion ([1]; 1,4-dioxane): Slightly soluble/very | Solubility conclusion ([1]; 2-methyltetrahydrofuran): Slightly soluble/very | Solubility conclusion ([1]; Acetone): Slightly soluble/very | Solubility conclusion ([1]; Acetone-water (1:2)): Slightly soluble/very | Solubility conclusion ([1]; Acetonitrile): Slightly soluble/very | Solubility conclusion ([1]; Acetonitrile-water (1:1)): Slightly soluble/very | Solubility conclusion ([1]; Cyclohexane): Slightly soluble/very | Solubility conclusion ([1]; Ethanol): Slightly soluble/very | Solubility conclusion ([1]; Ethanol-water (1:1)): Slightly soluble/very | Solubility conclusion ([1]; Ethanol-water (3:1)): Slightly soluble/very | Solubility conclusion ([1]; Ethyl acetate): Slightly soluble/very | Solubility conclusion ([1]; Heptane): Slightly soluble/very | Solubility conclusion ([1]; Isopropanol): Slightly soluble/very | Solubility conclusion ([1]; Isopropyl acetate): Slightly soluble/very | Solubility conclusion ([1]; Isopropyl alcohol-water (1:1)): Slightly soluble/very | Solubility conclusion ([1]; Methanol): Slightly soluble/very | Solubility conclusion ([1]; Methanol-water (1:1)): Slightly soluble/very | Solubility conclusion ([1]; Methanol-water (3:1)): Slightly soluble/very | Solubility conclusion ([1]; Methyl ethyl ketone): Slightly soluble/very | Solubility conclusion ([1]; Methyl isobutyl ketone): Slightly soluble/very | Solubility conclusion ([1]; Methyl tert-butyl ether): Slightly soluble/very | Solubility conclusion ([1]; N-butanol): Slightly soluble/very | Solubility conclusion ([1]; Tetrahydrofuran): Slightly soluble/very | Solubility conclusion ([1]; Toluene): Slightly soluble/very | Solubility conclusion ([1]; Water): Slightly soluble/very | solubility ([1]; aqueous with cosolvent or surfactant or cyclodextrin, Acetone-water (1:2)): < 2000 µg/mL | solubility ([1]; aqueous with cosolvent or surfactant or cyclodextrin, Acetonitrile-water (1:1)): < 2000 µg/mL | solubility ([1]; aqueous with cosolvent or surfactant or cyclodextrin, Ethanol-water (1:1)): < 2000 µg/mL | solubility ([1]; aqueous with cosolvent or surfactant or cyclodextrin, Ethanol-water (3:1)): < 2000 µg/mL | solubility ([1]; aqueous with cosolvent or surfactant or cyclodextrin, Isopropyl alcohol-water (1:1)): < 2000 µg/mL | solubility ([1]; aqueous with cosolvent or surfactant or cyclodextrin, Methanol-water (1:1)): < 2000 µg/mL | solubility ([1]; aqueous with cosolvent or surfactant or cyclodextrin, Methanol-water (3:1)): < 2000 µg/mL | solubility ([1]; organic solvent or mixture, 1,4-dioxane): < 2000 µg/mL | solubility ([1]; organic solvent or mixture, 2-methyltetrahydrofuran): < 2000 µg/mL | solubility ([1]; organic solvent or mixture, Acetone): < 2000 µg/mL | solubility ([1]; organic solvent or mixture, Acetonitrile): < 2000 µg/mL | solubility ([1]; organic solvent or mixture, Cyclohexane): < 2000 µg/mL | solubility ([1]; organic solvent or mixture, Ethanol): < 2000 µg/mL | solubility ([1]; organic solvent or mixture, Ethyl acetate): < 2000 µg/mL | solubility ([1]; organic solvent or mixture, Heptane): < 2000 µg/mL | solubility ([1]; organic solvent or mixture, Isopropanol): < 2000 µg/mL | solubility ([1]; organic solvent or mixture, Isopropyl acetate): < 2000 µg/mL | solubility ([1]; organic solvent or mixture, Methanol): < 2000 µg/mL | solubility ([1]; organic solvent or mixture, Methyl ethyl ketone): < 2000 µg/mL | solubility ([1]; organic solvent or mixture, Methyl isobutyl ketone): < 2000 µg/mL | solubility ([1]; organic solvent or mixture, Methyl tert-butyl ether): < 2000 µg/mL | solubility ([1]; organic solvent or mixture, N-butanol): < 2000 µg/mL | solubility ([1]; organic solvent or mixture, Tetrahydrofuran): < 2000 µg/mL | solubility ([1]; organic solvent or mixture, Toluene): < 2000 µg/mL | solubility ([1]; Water): < 2000 µg/mL | Results (crystal form of the solid by XRPD) ([2]; Acetone-water (1:2)): Crystal form A | Appearance (2 days) ([2]; Acetone-water (1:2)): Suspension | Results (crystal form of the solid by XRPD) ([2]; Acetone): Crystal form A | Appearance (2 days) ([2]; Acetone): Suspension | Results (crystal form of the solid by XRPD) ([2]; Ethanol-water (3:1)): Crystal form A | Appearance (2 days) ([2]; Ethanol-water (3:1)): Suspension | Results (crystal form of the solid by XRPD) ([2]; Ethanol): Crystal form A | Appearance (2 days) ([2]; Ethanol): Suspension | Results (crystal form of the solid by XRPD) ([2]; Ethyl acetate): Crystal form A | Appearance (2 days) ([2]; Ethyl acetate): Suspension | Results (crystal form of the solid by XRPD) ([2]; Isopropanol): Crystal form A | Appearance (2 days) ([2]; Isopropanol): Suspension | Results (crystal form of the solid by XRPD) ([2]; Isopropyl alcohol-water (1:1)): Crystal form A | Appearance (2 days) ([2]; Isopropyl alcohol-water (1:1)): Suspension | Results (crystal form of the solid by XRPD) ([2]; Methanol-water (3:1)): Crystal form A | Appearance (2 days) ([2]; Methanol-water (3:1)): Suspension | Results (crystal form of the solid by XRPD) ([2]; Methanol): Crystal form A | Appearance (2 days) ([2]; Methanol): Suspension | Results (crystal form of the solid by XRPD) ([2]; Tetrahydrofuran): Crystal form A | Appearance (2 days) ([2]; Tetrahydrofuran): Suspension | hygroscopicity (in words) [3]: low hygroscopicity | stability (in words) [3]: stable properties | water solubility (in words) [3]: excellent water solubility
SMILES: CN(c1ncnc2[nH]ccc12)[C@@H]1CCn2cc(C#N)nc2C1 [Crystal Form A of Compound 1]

XRPD ([4]; High humidity (room temperature/relative humidity 92.5%, open), day 5): Crystal form E | Appearance ([4]; High humidity (room temperature/relative humidity 92.5%, open), day 5 and day 10): White powder | XRPD ([4]; High humidity (room temperature/relative humidity 92.5%, open), day 10): Crystal form E | XRPD ([4]; High temperature (60° C., open), day 5): Crystal form E | Appearance ([4]; High temperature (60° C., open), day 5 and day 10): White powder | XRPD ([4]; High temperature (60° C., open), day 10): Crystal form E | XRPD ([4]; Strong light radiation (5000 lx, close), day 5): Crystal form E | Appearance ([4]; Strong light radiation (5000 lx, close), day 5 and day 10): White powder | XRPD ([4]; Strong light radiation (5000 lx, close), day 10): Crystal form E | Appearance ([4]; day 0 (initial)): White powder | XRPD ([4]; day 0 (initial)): Crystal form E | hygroscopicity (in words) [3]: low hygroscopicity | stability (in words) [3]: stable properties | water solubility (in words) [3]: excellent water solubility
SMILES: CN(c1ncnc2[nH]ccc12)[C@@H]1CCn2cc(C#N)nc2C1.Cc1ccc(S(=O)(=O)O)cc1 [Crystal Form E of Compound 2]

hygroscopicity (in words) [3]: low hygroscopicity | stability (in words) [3]: stable properties | water solubility (in words) [3]: excellent water solubility
SMILES: CN(c1ncnc2[nH]ccc12)[C@@H]1CCn2cc(C#N)nc2C1.O=C(O)C(F)(F)F [crystal form F of the compound 3]
